By inhibition is commonly meant the drop in the measured response relative to a control, in per cent. One may read the IC50 as the point on the concentration scale where inhibition reaches its midpoint.

Active and inactive are the calls of the source. The calls are words filed in the database; no cut-off is given here.

Assay [1] is described as follows: Antioxidant activity of the compound assessed as inhibition of fenton reaction-induced DNA strand cleavage of plasmid pcDNA Hismyc B4 after 1 hr by ethidium bromide staining-based agarose gel electrophoresis. Type of assay: functional.
For assay [2], the target named is Beta-secretase 1 (Homo sapiens) (UniProt P56817). Nature of the assay: Binding affinity to BACE1 (unknown origin) by fluorescence titration method.
Beta-secretase 1 (Homo sapiens), sequence (P56817 whole entry, the tested form may be a part): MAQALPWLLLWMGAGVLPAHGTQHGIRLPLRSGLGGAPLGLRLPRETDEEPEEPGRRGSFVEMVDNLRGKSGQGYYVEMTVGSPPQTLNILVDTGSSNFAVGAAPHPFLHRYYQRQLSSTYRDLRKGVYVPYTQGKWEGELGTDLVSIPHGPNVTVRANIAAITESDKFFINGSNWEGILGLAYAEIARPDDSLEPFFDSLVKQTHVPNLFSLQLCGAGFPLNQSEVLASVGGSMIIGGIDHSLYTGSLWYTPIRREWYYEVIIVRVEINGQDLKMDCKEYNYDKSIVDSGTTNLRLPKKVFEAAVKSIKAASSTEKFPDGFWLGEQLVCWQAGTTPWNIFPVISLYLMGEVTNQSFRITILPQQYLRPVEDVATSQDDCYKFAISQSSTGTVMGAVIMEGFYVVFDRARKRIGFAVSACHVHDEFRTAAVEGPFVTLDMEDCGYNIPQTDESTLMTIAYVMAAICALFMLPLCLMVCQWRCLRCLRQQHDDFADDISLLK
Assay [3] has the same target. Nature of the assay: Binding affinity to BACE1 (unknown origin) in acetate buffer at pH 4.8 at 250 nM by steady state spectrofluorimeter.
Assay [4] has the same target. Nature of the assay: Binding affinity to BACE1 (unknown origin) in acetate buffer at pH 4.8 assessed as increase in lifetime species of excited tryptophan in active site at 5 uM by time-resolved fluorescence spectroscopy relative to control.
Assay [5] deals with Amyloid-beta precursor protein (Homo sapiens) (UniProt P05067). Nature of the assay: Inhibition of amyloid beta (25 to 35 residues) (unknown origin) aggregation at 20 uM incubated for 3 days by 8-anilino-1-naphthalene-based fluorescence spectrophotometric method.
Amyloid-beta precursor protein (Homo sapiens), sequence (P05067 whole entry, the tested form may be a part): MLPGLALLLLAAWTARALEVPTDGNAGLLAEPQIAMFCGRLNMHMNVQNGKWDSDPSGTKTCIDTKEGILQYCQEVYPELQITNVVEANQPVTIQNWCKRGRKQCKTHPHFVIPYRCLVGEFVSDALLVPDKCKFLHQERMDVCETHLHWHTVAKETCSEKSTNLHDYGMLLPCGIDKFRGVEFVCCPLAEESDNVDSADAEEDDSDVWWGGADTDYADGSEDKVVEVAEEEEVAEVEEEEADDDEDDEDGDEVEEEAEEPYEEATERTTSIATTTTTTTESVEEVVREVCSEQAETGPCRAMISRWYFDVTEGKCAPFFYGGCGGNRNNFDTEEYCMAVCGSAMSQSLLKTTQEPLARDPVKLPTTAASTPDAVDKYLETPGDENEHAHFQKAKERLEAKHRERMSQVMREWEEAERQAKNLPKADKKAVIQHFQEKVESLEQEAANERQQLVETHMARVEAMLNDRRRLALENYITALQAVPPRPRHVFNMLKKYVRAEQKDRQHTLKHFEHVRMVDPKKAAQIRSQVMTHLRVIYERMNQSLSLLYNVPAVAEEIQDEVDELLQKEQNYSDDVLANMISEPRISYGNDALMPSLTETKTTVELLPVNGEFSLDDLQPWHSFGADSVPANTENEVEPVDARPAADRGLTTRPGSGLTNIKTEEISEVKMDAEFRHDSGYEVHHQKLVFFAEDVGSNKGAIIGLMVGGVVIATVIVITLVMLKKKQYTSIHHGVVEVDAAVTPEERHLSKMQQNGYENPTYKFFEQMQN
Assay [6] is described as follows: Antioxidant activity of the compound assessed as ABTS free radical scavenging activity. The assay is classed as functional.
The target in assay [7] is Amyloid-beta precursor protein (Homo sapiens) (UniProt P05067). Nature of the assay: Inhibition of amyloid beta (25 to 35 residues) (unknown origin) aggregation at 20 uM incubated for 3 days by thioflavin T-based fluorescence spectrophotometric method.
The target is the same in assay [8]. The experiment in a line: Inhibition of amyloid beta (25 to 35 residues) (unknown origin) aggregation at 100 uM incubated for 7 days by atomic force microscopic method.
A short description of assay [9]: Antioxidant activity of the compound assessed as inhibition of fenton reaction-induced DNA strand cleavage of plasmid pcDNA Hismyc B4 at 250 uM after 1 hr by ethidium bromide staining-based agarose gel electrophoresis. Type of assay: functional.
The target of assay [10] is Amyloid-beta precursor protein (Homo sapiens) (UniProt P05067). Nature of the assay: Inhibition of amyloid beta (25 to 35 residues) (unknown origin) aggregation at 20 uM incubated for 3 days by intrinsic flavonoid fluorescence assay.
Assay [11] addresses Beta-secretase 1 (Homo sapiens) (UniProt P56817). Nature of the assay: Inhibition of BACE1 (unknown origin) at 500 nM incubated for 2 hrs by FRET assay relative to control.
In assay [12] the target is Amyloid-beta precursor protein (Homo sapiens) (UniProt P05067). The experiment in a line: Inhibition of amyloid beta (25 to 35 residues) (unknown origin) aggregation at 10 uM incubated for 3 days by thioflavin T-based fluorescence spectrophotometric method relative to control.
The target in assay [13] is Beta-secretase 1 (Homo sapiens) (UniProt P56817). Nature of the assay: Binding affinity to BACE1 (unknown origin) in PBS at pH 7.4 up to 10 uM by steady state spectrofluorimeter.
The target is the same in assay [14]. Nature of the assay: Binding affinity to BACE1 (unknown origin) in acetate buffer at pH 4.8 at 0.25 to 5 uM by steady state spectrofluorimeter.

Take `Cc1c(C)c2c(c(C)c1O)CCC(C)(C(=O)O)O2` (stereo not given): the inhibition entry in [1] was “Active”.
In the case of `COc1ccc([C@@H]2CC(=O)c3c(O)cc(O[C@@H]4O[C@H](CO[C@@H]5O[C@@H](C)[C@H](O)[C@@H](O)[C@H]5O)[C@@H](O)[C@H](O)[C@H]4O)cc3O2)cc1O` [HESPERIDIN], in [2], the K is 302000. The outcome in [3], in assay [13] and in assay [14] was Active. Also, the fold change (FC) in assay [4] came to 2.5. The inhibition result in [5], in [7], in assay [8], in [9] and in assay [10] was “Active” throughout. In addition, in assay [6], the Activity result is “Dose-dependent effect”. Also, in [6], the IC50 was found to be 16.5 µM. Moreover, the inhibition in [11] is 100%; in [12], 40%.

These data come from ChEMBL document CHEMBL3853273, “Multi-target screening mines hesperidin as a multi-potent inhibitor: Implication in Alzheimer's disease therapeutics” (Eur J Med Chem, 2016).
